Measurements: patent publication US9585871B2, “Method for treating and curing leishmaniosis using fexinidazole” (Merial Limited, priority 2013, dated 2017)
Where two headings read alike, the source gives them in different places.

Test: Multiple dosing study in dogs: systemic exposure (plasma) to fexinidazole and its metabolites
Assay type: in vivo, dog
Details: for concentration at 0 h / concentration at 0.5 h / concentration at 1 h / concentration at 2 h / concentration at 4 h / concentration at 8 h / concentration at 24 h / Cmax / Tmax / AUC(0-t): dog, plasma; for concentration at 0 h / concentration at 0.5 h / concentration at 1 h / concentration at 2 h / concentration at 4 h / concentration at 8 h / concentration at 24 h: oral, read-out: Average plasma concentrations of fexinidazole; for concentration at 2 h: Day 1, 2 hours; for concentration at 4 h: Day 1, 4 hours; for concentration at 8 h: Day 1, 8 hours; for concentration at 24 h: Day 1, 24 hours; for Cmax / Tmax / AUC(0-t): female, po, Female Dog, n = 3; for AUC(0-t): read-out: AUC0-t (last)
Protocol: In an embodiment, the fexinidazole may be administered to the canine as an aqueous oral suspension, comprising 5% TWEEN 80 and 0.5% Methyl cellulose 400 cP (METHOCEL). Provided in this format, fexinidazole suspensions of 5, 20, and 80 mg fexinidazole/mL may be prepared such that 10 mL of each concentration contains 50, 200, and 800 mg fexinidazole, respectively.
Moreover, inventors expect that a wide variety of dosing regimens are now available to the skilled person to achieve the necessary and sufficient fexinidazole plasma levels. For example, and as further outlined in the Examples below, any dosing regimen that produces substantially similar fexinidazole plasma levels, as compared to those levels produced by giving the dogs about 60 mg/kg/day for about twenty-eight days, is expected to substantially or completely eliminate the Leishmania parasites. Table 1 presents the systemic fexinidazole exposure following dosing of dogs with 50, 200, and 800 mg/kg/day.

[1] = 50 mg/kg/day, 50 mg/kg/day oral
[2] = 200 mg/kg/day, 200 mg/kg/day oral
[3] = 50 mg/kg/day, 50 mg/kg/day oral, D1, mean ± SD
[4] = 50 mg/kg/day, 50 mg/kg/day oral, D14, mean ± SD
[5] = 50 mg/kg/day, 50 mg/kg/day oral, D28, mean ± SD

With CSc1ccc(OCc2ncc([N+](=O)[O-])n2C)cc1 [Fexinidazole, fexinidazole] the “Average plasma concentrations of fexinidazole” value (“Average plasma concentrations” for short) (50 mg/kg/day oral, Day 14, 2 hours) was 26.8 ng/mL, the “Average plasma concentrations” value (50 mg/kg/day oral, Day 14, 4 hours) was ~9 ng/mL and the “Average plasma concentrations” value (50 mg/kg/day oral, Day 14, 8 hours) was <5 ng/mL. For the same compound, the “Average plasma concentrations” value (50 mg/kg/day oral, Day 14, 24 hours) was <5 ng/mL, the “Average plasma concentrations” value (50 mg/kg/day oral, Day 28, 0 hours) was <5 ng/mL and the “Average plasma concentrations” value (50 mg/kg/day oral, Day 28, 1 hour) was 28.3 ng/mL. The “Average plasma concentrations” value (50 mg/kg/day oral, Day 28, 2 hours) was 17.5 ng/mL, the “Average plasma concentrations” value (50 mg/kg/day oral, Day 28, 4 hours) was 14.3 ng/mL and the “Average plasma concentrations” value (50 mg/kg/day oral, Day 28, 8 hours) was ~5 ng/mL. The “Average plasma concentrations” value (50 mg/kg/day oral, Day 28, 24 hours) was <5 ng/mL, the “Average plasma concentrations” value (200 mg/kg/day oral, Day 14, 2 hours) was 70.2 ng/mL and the “Average plasma concentrations” value (200 mg/kg/day oral, Day 14, 4 hours) was 27.6 ng/mL. The “Average plasma concentrations” value (200 mg/kg/day oral, Day 14, 8 hours) was 13.5 ng/mL, the “Average plasma concentrations” value (200 mg/kg/day oral, Day 14, 24 hours) was 10.2 ng/mL and the “Average plasma concentrations” value (200 mg/kg/day oral, Day 28, 0 hours) was <5 ng/mL. The “Average plasma concentrations” value (200 mg/kg/day oral, Day 28, 1 hour) was 65.4 ng/mL, the “Average plasma concentrations” value (200 mg/kg/day oral, Day 28, 2 hours) was 44.6 ng/mL and the “Average plasma concentrations” value (200 mg/kg/day oral, Day 28, 4 hours) was 23.5 ng/mL. For the same compound, the “Average plasma concentrations” value (200 mg/kg/day oral, Day 28, 8 hours) was 12.4 ng/mL, the “Average plasma concentrations” value (200 mg/kg/day oral, Day 28, 24 hours) was 12.4 ng/mL and the concentration at 0 h (50 mg/kg/day, 50 mg/kg/day oral, Day 1, 0 hours) was < 5 ng/mL. For the same compound, the concentration at 0.5 h (50 mg/kg/day, 50 mg/kg/day oral, Day 1, 0.5 hours) was 34.5 ng/mL, the concentration at 1 h (50 mg/kg/day, 50 mg/kg/day oral, Day 1, 1 hour) was 30.3 ng/mL and the concentration at 2 h [1] was 23.8 ng/mL. The concentration at 4 h [1] was 12.6 ng/mL, the concentration at 8 h [1] was < 5 ng/mL and the concentration at 24 h [1] was < 5 ng/mL. The concentration at 0 h (50 mg/kg/day, 50 mg/kg/day oral, Day 14, 0 hours) was < 5 ng/mL, the concentration at 0.5 h (50 mg/kg/day, 50 mg/kg/day oral, Day 14, 0.5 hours) was 28.8 ng/mL and the concentration at 1 h (50 mg/kg/day, 50 mg/kg/day oral, Day 14, 1 hour) was 29.5 ng/mL. The concentration at 0 h (200 mg/kg/day, 200 mg/kg/day oral, Day 1, 0 hours) was < 5 ng/mL, the concentration at 0.5 h (200 mg/kg/day, 200 mg/kg/day oral, Day 1, 0.5 hours) was 52.1 ng/mL and the concentration at 1 h (200 mg/kg/day, 200 mg/kg/day oral, Day 1, 1 hour) was 61.3 ng/mL. The concentration at 2 h [2] was 45.9 ng/mL, the concentration at 4 h [2] was 22.6 ng/mL and the concentration at 8 h [2] was 9.9 ng/mL. For the same compound, the concentration at 24 h [2] was 13 ng/mL, the concentration at 0 h (200 mg/kg/day, 200 mg/kg/day oral, Day 14, 0 hours) was 16.6 ng/mL and the concentration at 0.5 h (200 mg/kg/day, 200 mg/kg/day oral, Day 14, 0.5 hours) was 53.4 ng/mL. The concentration at 1 h (200 mg/kg/day, 200 mg/kg/day oral, Day 14, 1 hour) was 63.2 ng/mL, the Metabolism (dogs, after single and repeated administration) was “extensively metabolized to the sulfone and sulfoxide derivatives” and the Cmax [3] was 42.4 ± 10.6 ng/mL. For the same compound, the Tmax [3] was 1 ± 0.87 h, the AUC(0-t) [3] was 237 ± 105 ng·h/mL and the Cmax [4] was 41.9 ± 2.2 ng/mL. The Tmax [4] was 1.67 ± 0.58 h, the AUC(0-t) [4] was 246 ± 117 ng·h/mL and the Cmax [5] was 36.3 ± 15.1 ng/mL. For the same compound, the Tmax [5] was 1 h and the AUC(0-t) [5] was 87.1 ± 38.1 ng·h/mL.
